# Experimental data as given in patent publication US20230140838A9, “NOVEL ACTIVITY-BASED PROBES FOR NEUTROPHIL ELASTASE AND THEIR USE” (Takeda Pharmaceutical Company Limited, priority 2018, published 2023).
# Assays:
# NE [1] = target: T1, NE (Mus musculus, UniProt Q3UP87); assay type: binding
# T1 sequence (Q3UP87 29-247 limits assumed): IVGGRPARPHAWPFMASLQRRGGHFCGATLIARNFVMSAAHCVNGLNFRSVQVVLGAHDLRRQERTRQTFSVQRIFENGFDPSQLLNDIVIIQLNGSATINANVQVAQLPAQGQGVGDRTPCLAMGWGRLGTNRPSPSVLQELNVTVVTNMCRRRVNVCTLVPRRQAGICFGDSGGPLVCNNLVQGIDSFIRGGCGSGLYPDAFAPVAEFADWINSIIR
# [2] = system: serine proteases in lysates prepared from mouse pancreas; assay: Ex vivo labeling of mouse pancreas lysates, in-gel fluorescence and immunoprecipitation; assay type: binding
# Protocol: (§1) Tubes were rocked overnight at 4° C.
# neutrophil elastase (NE) = target: T2, neutrophil elastase (NE) (Homo sapiens, UniProt P08246); assay: Recombinant protease labeling / fluorescent SDS-PAGE, neutrophil elastase; assay type: binding; settings: 0.1-1 μM probe
# T2 construct: purchased Elastin Products Company
# T2 sequence (P08246 30-267): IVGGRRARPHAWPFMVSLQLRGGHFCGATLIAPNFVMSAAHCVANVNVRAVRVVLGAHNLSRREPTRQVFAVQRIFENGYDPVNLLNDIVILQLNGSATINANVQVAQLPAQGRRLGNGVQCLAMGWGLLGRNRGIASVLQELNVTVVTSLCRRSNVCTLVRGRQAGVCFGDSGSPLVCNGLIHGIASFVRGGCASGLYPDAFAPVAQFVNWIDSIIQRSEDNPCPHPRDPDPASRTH
# NE [3] = target: T1, NE; assay type: binding; remark: listed apart in the source
# NE [4] = assay: Ex vivo labeling of human colon mucosal biopsy lysates (ulcerative colitis vs healthy); assay type: binding
# Protocol: as §1
# Human mucosal biopsies were obtained from individuals during colonoscopy procedures at Hotel Dieu Hospital in Kingston, Ontario, Canada (Table 1). Patients were well-characterized individuals with active ulcerative colitis (UC) or healthy individuals undergoing routine colonoscopy for cancer screening. For UC patients, biopsies were obtained from sites of active inflammation. Written and verbal consent was obtained prior to enrolment and all protocols were approved by the Queen's University Human Ethics Committee. Fresh biopsies were washed in PBS and then snap frozen for protease analysis as above.
# NE [5] = system: NE
# Protocol: PK105b or Cy5-V-DPP (0, 0.1, 0.5 or 1 μM) was added from a 100×DMSO stock, and reaction was left to occur at 37° C. for 30 minutes. Proteins were solubilized in 4× sample buffer (40% glycerol, 200 mM Tris-Cl [pH 6.8], 8% SDS, 0.04% bromophenol blue, 5% beta-mercaptoethanol), boiled for five minutes and resolved on a 15% SDS-PAGE gel. Probe labeling was detected by scanning the gel for Cy5 fluorescence on a Typhoon 5 flatbed laser scanner (GE Healthcare).
# Bone marrow was obtained by flushing tibias and femurs from healthy C57BL/6J mice with PBS. Cells were washed and resuspended in PBS prior to sonication on ice. […] Total protein (60 μg, as measured by BCA assay, Pierce) was aliquoted in a total volume of 20 μl PBS, and probe labeling and SDS-PAGE was carried out as above.
# Fluorescent Gels were Transferred to Nitrocellulose Membranes and Blotted Using the Turbo Blot system (BioRad). […] Binding was detected by scanning with the IRLong filter on a Typhoon 5 flatbed laser scanner (GE Healthcare).
# PK105b-labeled lysates (boiled in sample buffer for five minutes) were divided into input and immunoprecipitation (IP) samples (100 μg each). […] Supernatants were then analyzed, alongside the input sample, by fluorescent SDS-PAGE as above. […]
smiles,measurement,setting,value
CCC(NC(=O)[C@@H]1CC2CCCCC2N1C(=O)[C@H](CCS(C)(=O)=O)NC(=O)[C@H](CCCCOCc1ccccc1)NC(=O)CCCCCN1/C(=C/C=C/C=C/C2=[N+](CC)c3ccc(S(=O)(=O)[O-])cc3C2(C)C)C(C)(C)c2cc(S(=O)(=O)O)ccc21)P(=O)(Oc1ccccc1)Oc1ccccc1 (stereo partly shown) [PK105b],identity of the major 25-KDa species by immunoblotting and immunoprecipitation,NE [1],confirmed to be NE
same,labeling in infected lung tissue lysates compared with control lungs,NE [1],significantly increased
same,labeling of 25-KDa proteins in mouse pancreas lysates (in-gel fluorescence),"[2]; 0.1, 0.5 and 1 µM",strongly labeled
same,targets of the probe identified by immunoprecipitation,"[2]; labeled mouse pancreas lysates, antibodies to NE, PE, Try3","combination of NE, pancreatic elastase (PE), and trypsin 3"
same,potency of NE labeling compared between probes,neutrophil elastase (NE),more potent than Cy5-V-DPP
same,ability to detect NE activity in tissue lysates compared between probes,NE [3],clearly superior to Cy5-V-DPP
same,binding to other species (off-target bands),NE [3],binding to several species in the 50-75-KDa range
same,identity of the labeled band by immunoprecipitation with NE-specific antibody,NE [3],confirmed to be NE
same,labeling of the 25-KDa band in healthy distal colons and proximal regions of healthy and inflamed colons,NE [3],virtually absent
same,labeling of the 25-KDa species in distal colon lysates of TNBS-treated mice,NE [3],clear labeling of a single protein at 25-KDa
same,species of the 25-KDa NE doublet labeled by the probe,NE [3],Only the lower species
same,identity of labeled bands by immunoprecipitation with NE-specific antibody,NE [4]; UC biopsy lysates,confirmed to be NE
same,labeling in active ulcerative colitis biopsies compared with healthy individuals,"NE [4]; human colon mucosal biopsies, UC n=9, normal n=5",significant increase in labeling
same,number of species labeled in human mucosal lysates,NE [4]; in-gel fluorescence,three species were labeled
same,labeling in tumor tissues versus normal tongue tissues,"NE [5]; HSC-3 xenograft, two weeks","clear labeling of a 25-KDa species in tumor tissues, but not normal tongue tissues"
same,labeling of other high-molecular weight species in tumor/tongue lysates,NE [5]; unidentified species,abundantly labeled
